Results reported in patent US20150190360A1, “METHODS OF ADMINISTERING MONOMETHYL FUMARATE” (XenoPort, Inc., priority 2013, published 2015).

Experiments:
[1] = tested on: imiquimod (IMQ) mouse model of psoriasis; format: in vivo, Balb/c mice
Method: In the imiquimod (IMQ) mouse model of psoriasis. Balb/c mice (10 males/group) received daily topical IMQ (5% cream) on shaved back and right ear for 5 days. Animals received oral active drug (90 mg-eq MMF/kg twice daily) or vehicle from Day −5 to Day 5. Erythema score was the primary outcome measure. […] The AUCmolar-MMF-GA:AUCmolar-MMF Ratio (%) in mice dosed with active drug at 90 mg/kg was 23.6%.

[2] = tested on: MOG35-55 mouse EAE model of MS

AUCmolar-MMF-GA:AUCmolar-MMF Ratio ([1]; male, Balb/c, mouse, in vivo, 90 mg/kg): 23.6% | AUCmolar-MMF-GA:AUCmolar-MMF Ratio ([2]; female, C57BL/6, mouse, in vivo, 90 mg/kg): 23.6%
SMILES: CCN(CC)C(=O)COC(=O)/C=C/C(=O)OC [Active drug, (N,N-diethylcarbamoyl)methyl methyl (2E)but-2-ene-1,4-dioate]
Erythema score versus control ([1]; oral 90 mg-eq MMF/kg twice daily from Day -5 to Day 5, Balb/c mice, topical IMQ 5% cream): significant reduction | EAE clinical score (Day 29 and overall AUC) compared to vehicle ([2]; oral 90 mg-eq MMF/kg twice daily on Days 3 to 29, C57BL/6 mice, 5 point scale): significant reduction
